In patent US11761894B2, “Silicon-rhodamine fluorescent probe containing hydrophobic group and use thereof” (AJOU UNIVERSITY INDUSTRY—ACADEMIC COOPERATION FOUNDATION, priority 2019, dated 2023):

How the values were obtained:
Assay type in all cases: cell-based, human
[1] = tested on: Mitochondria-YFP Chang liver cells; assay: Mitochondrial targeting efficiency in Chang liver cells expressing mitochondrial YFP; details: 1 μM, 60 min
Procedure: (§1) (a) HeLa and Hep3B cells were incubated with MitoTracker Green (0.5 μM), and SiR-Mito 8 (1 μM) for 1 h. After washing 3 times with fresh media, fluorescent live cell images were acquired with LEICA DMi8 microscope. (MitoTracker green: FITC channel, SiR-Mito 8: Cy 5 channel, Scale bar: 15 μm); (b) Chang liver cells expressing mitochondrial YFP were incubated with SiR-Mito 8 (1 μM) for 1 h. After washing 3 times with fresh media, fluorescent live cell images were acquired with LEICA DMi8 microscope. (Mitochondrial-YFP: Rhodamine channel, Scale bar: 15 μm).
The mitochondrial targeting efficiency of SiR-Mito 8 in live cells was examined by high-resolution imaging.
To this end, Overexpression plasmid for Mitochondria-YFP was obtained from Catholic University (Seoul, Korea) and transfected into Chang liver cells. Stable clones expressing Mitochondria-YFP was selected using 0.25 mg/ml G418. Next, Mitochondria-YFP infected Chang liver cells were cultured in Dulbecco's modified eagle media (DMEM, GIBCO) containing 10% fetal bovine serum (FBS, GIBCO) and 1% penicillin (GIBCO) at 37° C. in a humidified incubator with 5% CO2. For the fluorescence microscope imaging, cells were harvested using TrypLE™ Express (GIBCO) and resuspended in fresh culture medium. […] Cells were washed three times with 1×PBS and observed with inverted fluorescence microscope (DMi8, LEICA).

[2] = tested on: Hep3B liver cancer cells vs L02 or Chang normal liver cells; assay: Comparison of fluorescence intensity between normal cells and cancer cells; details: 1 μM, 1 h
Procedure: (a) Cells were incubated with full growth media containing SiR-Mito 8 (1 μM) and Hoechst dye (0.01 μg/ml) for 1 h. The cells were washed 3 times with growth media and observed with a LEICA DMi8 fluorescent microscope. […] (b) Quantification of the fluorescence intensity of SiR-Mito 8 in L02, Chang liver and in Hep3B cells. Scale bar: 50 μm.
Therefore, the present inventors envisioned that SiR-Mito 8 could differentiate cancer cells from normal cells without involving ligand conjugation. For fluorescent tumor imaging, human liver cancer Hep3B cells and the human hepatocyte line L02 were incubated with 1.0 μM SiR-Mito 8 for 1 hour, washed three times with cell growth media, and imaged using a LEICA DMi8 fluorescence microscope.
Specifically, Hep3B human liver cancer cells were cultured in Dulbecco's modified eagle media (DMEM, GIBCO) containing 10% fetal bovine serum (FBS, GIBCO) and 1% penicillin (GIBCO), and L02 or Chang human liver normal cells were cultured in Roswell Park Memorial Institute (RPMI, CAPRICORN) 1640 with L-Glutamine containing 10% FBS (GIBCO) and 1% Penicillin (HyClone) at 37° C. in a humidified incubator with 5% CO2. For the fluorescence microscope imaging, cells were harvested using TrypLE™ Express (GIBCO) and resuspended in fresh culture medium. […] Cells were washed with cell culture media for three times and observed with inverted fluorescence microscope (DMi8, LEICA).

[3] = tested on: mitochondria in HeLa cells; assay: Colocalization test of SiR-Mito probes with MitoTracker green in HeLa cells; details: 1 μM probe, 1 h
Procedure: HeLa cells were incubated with cell culture media containing 1 μM SiR-Mito probe, and 0.5 μM MitoTracker green. After 1 h, HeLa cells were washed three times with 1×PBS for and observed with a LEICA DMi8 fluorescent microscope. Each experiment was observed using 512-542 nm emitter for FITC channel (for MitoTracker Green), and 663-738 nm exciter, 545-625 nm emitter for Cy5 channel (for SiR-Mito probes). Scale bar: 50 μm.
HeLa human cervical cancer cells were cultured in Dulbecco's modified eagle media (DMEM, GIBCO) containing 10% fetal bovine serum (FBS, GIBCO) and 1% penicillin (GIBCO) at 37° C. in a humidified incubator with 5% CO2. For the fluorescence microscope imaging, cells were harvested using TrypLE™ Express (GIBCO) and resuspended in fresh culture medium. Harvested cells with a density of 4.0×10^3 cells/well were seeded on a HeLa 96 black well plate (CORNING) and incubated for 24 h. Cells were incubated with SiR-Mito probes (1 μM) and MitoTracker Green (0.5 μM) for 60 min. After the incubation, cells were washed with 1×PBS for three times and observed with inverted fluorescence microscope (DMi8, LEICA). Each experiment was observed using a 325-375 nm exciter, 435-485 nm emitter for DAPI channel, 460-500 nm exciter, 512-542 nm emitter for FITC channel, 541-551 nm exciter, 565-605 nm emitter for Rhodamine channel, and 663-738 nm exciter, 545-625 nm emitter for Cy5 channel.
To determine the effect of probe hydrophobicity on the efficiency of targeting to mitochondria, the Pearson coefficient for colocalization of SiR-Mito probes and MitoTracker green, a commercial fluorescent mitochondrial bioprobe, was measured (FIG. 1). For the colocalization test, human cervical cancer HeLa cells were seeded on 96-well plates and incubated for 1 h with 1 μM of each different SiR-Mito probe and 0.5 μM MitoTracker green, washed briefly with 1×PBS, and imaged with a LEICA DMi8 fluorescent microscope using the 40× objective.

HeLa, and Hep3B cells = assay: High-resolution live cell imaging of SiR-Mito 8 with MitoTracker green; details: 1 μM, 60 min
Procedure: as §1
Mitochondrial specificity in live cells labeled with SiR-Mito 8 and MitoTracker green was examined by high-resolution imaging.
To this end, HeLa, and Hep3B cells were cultured in Dulbecco's modified eagle media (DMEM, GIBCO) containing 10% fetal bovine serum (FBS, GIBCO) and 1% penicillin (GIBCO) at 37° C. in a humidified incubator with 5% CO2. For the fluorescence microscope imaging, cells were harvested using TrypLE™ Express (GIBCO) and resuspended in fresh culture medium. Harvested cells were seeded on a confocal dish with a density of 4.0×10^4 cells/well. After 24 h incubation, cells were incubated with SiR-Mito 8 (1 μM) and Mitotracker green (0.5 uM) for 60 min. Cells were washed three times with 1×PBS and observed with inverted fluorescence microscope (DMi8, LEICA).

N-(10-(5-((cyclooctylmethyl) carbamoyl)-2-methylphenyl)-7-(dimethylamino)-5,5-dimethyldibenzo[b,e]silin-3(5H)-ylidene)-N-methylmethanaminium [SiR-Mito 8]
Mitochondrial targeting efficiency [1]: high mitochondrial targeting efficiency | Fluorescence intensity in cancer cells versus normal cells [2]: higher fluorescence intensity than normal cells | Mitochondria Targeting (Pearson coefficient for colocalization with MitoTracker green) ([3]; 0.5 μM MitoTracker green): *** (*** 0.9 ≤ R) | Pearson coefficient for colocalization with MitoTracker green ([3]; 0.5 μM MitoTracker green): highest | Intracellular fluorescence (SiR channel) [3]: strongest | Mitochondrial specificity in live cells (co-expression with MitoTracker green) (HeLa, and Hep3B cells): highly co-expressed
